Experimental data reported in publication PMC5478869, “New Hydroxycinnamic Acid Esters as Novel 5-Lipoxygenase Inhibitors That Affect Leukotriene Biosynthesis” (Mediators of Inflammation, 2017).

Biological target: T1, platelet 12-lipoxygenase (12-LO) (Homo sapiens, UniProt P18054)
T1 construct: endogenous in cells; host or cells: platelets isolated from platelet-rich plasma
T1 sequence (P18054 1-663): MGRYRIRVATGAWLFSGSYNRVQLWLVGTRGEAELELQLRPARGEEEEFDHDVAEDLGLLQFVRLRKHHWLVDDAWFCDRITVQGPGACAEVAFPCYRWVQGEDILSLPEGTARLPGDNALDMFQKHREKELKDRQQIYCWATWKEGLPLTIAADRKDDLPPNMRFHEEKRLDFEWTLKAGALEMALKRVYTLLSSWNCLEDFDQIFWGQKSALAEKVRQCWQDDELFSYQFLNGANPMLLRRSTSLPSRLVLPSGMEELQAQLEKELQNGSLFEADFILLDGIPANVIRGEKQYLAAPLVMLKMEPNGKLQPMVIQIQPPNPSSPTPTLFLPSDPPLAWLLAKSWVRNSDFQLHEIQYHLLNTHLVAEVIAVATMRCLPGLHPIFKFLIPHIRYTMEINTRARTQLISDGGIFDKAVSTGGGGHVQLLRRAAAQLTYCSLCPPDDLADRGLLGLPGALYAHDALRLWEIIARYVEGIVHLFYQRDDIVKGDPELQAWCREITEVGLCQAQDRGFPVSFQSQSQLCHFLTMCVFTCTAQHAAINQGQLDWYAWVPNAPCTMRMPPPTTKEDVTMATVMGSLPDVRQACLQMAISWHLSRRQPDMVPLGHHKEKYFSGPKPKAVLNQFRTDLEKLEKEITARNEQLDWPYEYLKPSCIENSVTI
Test: Platelet activation (A23187), biosynthesis of 12-HETE
Assay type: cell-based
Details: 10 μM A23187 5 min
Procedure: Polymorphonuclear leukocytes (PMNL) were isolated as previously described. Briefly, whole blood was collected (with anticoagulant citrate dextrose (ACD)) and then centrifuged at 500 g for 10 min. Platelet-rich plasma (PRP) was set aside for platelet isolation (see below), and erythrocytes were removed by dextran sedimentation. After a centrifugation step at 900 g × 20 min at room temperature on a lymphocyte separation medium cushion (density, 1.077 g/ml) (Wisent), PMNL were obtained (>96%) followed by hypotonic lysis of the remaining erythrocytes. PMNL were counted and resuspended at 10^7 cells/ml in HBSS supplemented with 1.6 mM CaCl2. PRP was processed as previously described for platelet isolation. Briefly, PRP was centrifuged at 400 g for 2 min at room temperature to remove the remaining erythrocytes. The supernatant was then centrifuged at 1300g for 10 min to pellet platelets. Cells were resuspended in Tyrode Buffer pH 7.4 (134 mM NaCl, 2.9 mM KCl, 0.34 mM Na2HPO4, 12 mM NaHCO3, 20 mM HEPES, 1 mM MgCl2, 5 mM glucose, and 0.5 mg/ml BSA) at 3 × 10^8 cells/ml in the presence of 5 mM CaCl2.
Platelets (3 × 10^8 cells/ml) were preincubated with various test compounds at indicated concentrations for 5 min at 37°C. Platelet activation was initiated with the addition of 10 μM of calcium ionophore A23187 (Sigma-Aldrich) followed by a 5 min incubation time at 37°C. Reactions were stopped with the addition of two volumes of cold MeOH:MeCN (1 : 1) containing PGB2 (100 ng/ml) as internal standard. Samples were stored overnight at −20°C and were then centrifuged, the supernatant was dried under nitrogen, and the samples were resuspended in 30% methanol and analyzed by RP-HPLC as indicated above.
Figure 5 The inhibitory effects of the test compounds of the biosynthesis of 5-LO products in stimulated whole blood (a) and the biosynthesis of 12-lipoxygenase products in platelets (b). (a) Whole blood was incubated in presence of various compounds (1 μM and 5 μM) or with their diluent (control, DMSO 0.5%) for 5 min, then stimulated with opsonized zymosan (5 mg/ml) for 30 min at 37°C. Blood was then centrifuged and plasma was collected and added to 3.5 volumes of MeOH:CH3CN (1 : 1). Samples were processed for analysis by RP-HPLC for total 5-LO products quantification. Total 5-LO products measured represent the sum of LTB4, its trans isomers, 20-COOH and 20-OH-LTB4, and 5-hydroxyeicosatetraenoic acid. (b) Platelets were incubated for 5 min in presence of test compounds (1 μM and 3 μM) then biosynthesis of 12-HETE was initiated with the addition of 10 μM of calcium ionophore A23187. Reactions were stopped with the addition of two volumes of MeOH:MeCN (1 : 1 v/v). Samples were processed for analysis by RP-HPLC for 12-hydroxyeicosatetraenoic acid (12-HETE) quantification. ^∗Different from control as determined by one-way ANOVA with Dunnett's multiple comparison test (p < 0.05). Data are expressed as means ± SEM of at least 3 independent experiments.
Having identified compounds that inhibit the biosynthesis of lipid mediators generated via the 5-LO pathway, their ability to inhibit platelet 12-lipoxygenase (12-LO) was assessed to determine whether they show specificity.

| SMILES | Inhibition of biosynthesis of 12-HETE in platelets (1 μM compound) | Inhibition of biosynthesis of 12-HETE in platelets (3 μM compound) |
| --- | --- | --- |
| O=C(/C=C/c1ccc(O)c(O)c1)OCCCc1ccccc1 [Compound 13] | significantly inhibited the biosynthesis of 12-HETE | near-complete inhibition |
| Cc1ccc(CCOC(=O)/C=C/c2ccc(O)c(O)c2)cc1 [Compound 15] | significantly inhibited the biosynthesis of 12-HETE | near-complete inhibition |
| C=C(C)CCOC(=O)/C=C/c1ccc(O)c(O)c1 [Compound 9] | significantly inhibited the biosynthesis of 12-HETE | near-complete inhibition |
| COc1ccc(CCOC(=O)/C=C/c2ccc(O)c(O)c2)cc1 [Compound 16] | failed to significantly affect the biosynthesis of 12-HETE | significant inhibition |
| O=C(/C=C/c1ccc(O)c(O)c1)OCCc1ccc(F)cc1 [Compound 14] | significantly inhibited the biosynthesis of 12-HETE | near-complete inhibition |
| O=C(/C=C/c1ccc(O)c(O)c1)OCC(c1ccccc1)c1ccccc1 [Compound 19] | failed to significantly affect the biosynthesis of 12-HETE | significant inhibition |
| O=C(/C=C/c1ccc(O)c(O)c1)OCCc1ccccc1 [CAPE (2), Caffeic acid phenethyl ester, reference compound] | significantly inhibited the biosynthesis of 12-HETE | near-complete inhibition |
